Measurements published in patent US9409892B2, “4-hydroxy-isoquinoline compounds as HIF hydroxylase inhibitors” (FIBROGEN, INC., priority 2012, dated 2016).

Legend:
PHD1 (EGLN2) = PHD1 (EGLN2) (Homo sapiens (Human), UniProt Q96KS0); test: HIF-PH assay (14CO2 capture), PHD1 enzyme inhibition; type: biochemical; conditions: for IC50: individual measurement, read-out: IC50 (μM) PHD1
Text: (§1) Ketoglutaric acid α-[1-^14C]-sodium salt, alpha-ketoglutaric acid sodium salt, and HPLC purified peptide may be obtained from commercial sources, e.g., Perkin-Elmer (Wellesley Mass.), Sigma-Aldrich, and SynPep Corp. (Dublin Calif.), respectively. Peptides for use in the assay may be fragments of HIFα as described above or as disclosed in International Publication WO 2005/118836, incorporated by reference herein. HIF-pH, e.g., PHD1 (EGLN2) or PHD2 (EGLN1), can be expressed in, e.g., insect Hi5 cells, and partially purified, e.g., through a SP ion exchange chromatography column. Enzyme activity is determined by capturing ^14CO2 using an assay described by Kivirikko and Myllyla (1982, Methods Enzymol. 82:245-304). Assay reactions contain 50 mM HEPES (pH 7.4), 100 μM α-ketoglutaric acid sodium salt, 0.30 mCi/mL ketoglutaric acid α-[1-^14C]-sodium salt, 40 μM FeSO4, 1 mM ascorbate, 1541.8 units/mL Catalase, with or without 50 μM peptide substrate and various concentrations of compound of the invention. Reactions are initiated by addition of HIF-PH enzyme.
(§2) The peptide-dependent percent turnover is calculated by subtracting percent turnover in the absence of peptide from percent turnover in the presence of substrate peptide. Percent inhibition and IC50 are calculated using peptide-dependent percent turnover at given inhibitor concentrations. Calculation of IC50 values for each inhibitor is conducted using GraFit software (Erithacus Software Ltd., Surrey UK).
(§3) The PHD2/PHD1 is the ratio of the IC50 of the compound for each enzyme.

PHD2 (EGLN1) = PHD2 (EGLN1) (Homo sapiens (Human), UniProt Q9GZT9); test: HIF-PH assay (14CO2 capture), PHD2 enzyme inhibition; type: biochemical; conditions: Table 1; individual measurement; read-out: IC50 (μM) PHD2
Sequence of PHD2 (EGLN1) (Q9GZT9 whole entry): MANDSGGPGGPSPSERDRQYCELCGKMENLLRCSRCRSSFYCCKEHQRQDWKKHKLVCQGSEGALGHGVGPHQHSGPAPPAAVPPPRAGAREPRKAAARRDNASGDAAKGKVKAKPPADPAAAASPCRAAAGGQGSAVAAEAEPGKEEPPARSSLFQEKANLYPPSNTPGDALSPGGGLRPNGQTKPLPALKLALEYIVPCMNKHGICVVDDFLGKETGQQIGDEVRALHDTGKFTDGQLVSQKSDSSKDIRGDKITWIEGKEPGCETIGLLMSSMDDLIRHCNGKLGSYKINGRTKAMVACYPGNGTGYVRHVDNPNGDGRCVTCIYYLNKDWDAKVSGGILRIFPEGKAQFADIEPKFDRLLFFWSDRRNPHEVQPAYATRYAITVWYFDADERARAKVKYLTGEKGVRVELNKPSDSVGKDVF
Text: as §1, §2, §3

[1] = Table 1, ratio of the IC50 of the compound for each enzyme

Sequence of PHD1 (EGLN2) (Q96KS0 whole entry, the tested form may be a part): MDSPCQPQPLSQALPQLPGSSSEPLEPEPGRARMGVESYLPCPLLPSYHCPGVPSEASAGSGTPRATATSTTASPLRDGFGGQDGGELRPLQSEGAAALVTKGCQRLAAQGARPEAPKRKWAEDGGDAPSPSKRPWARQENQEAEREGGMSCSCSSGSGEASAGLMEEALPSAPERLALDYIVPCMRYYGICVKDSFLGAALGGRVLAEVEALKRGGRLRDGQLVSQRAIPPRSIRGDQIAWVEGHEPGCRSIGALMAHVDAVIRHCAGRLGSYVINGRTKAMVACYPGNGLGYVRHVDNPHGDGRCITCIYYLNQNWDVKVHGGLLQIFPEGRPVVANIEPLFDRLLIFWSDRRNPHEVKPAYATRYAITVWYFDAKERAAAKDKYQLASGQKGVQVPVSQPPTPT

SMILES | IC50 (PHD1 (EGLN2); Table 1) | PHD2/PHD1 (PHD1 (EGLN2); [1]) | IC50 (PHD2 (EGLN1)) | PHD2/PHD1 (PHD1 (EGLN2); Table 2 comparative data, IC50 PHD2/IC50 PHD1)
N#Cc1nc(C(=O)NCC2(CC(=O)O)CCCCC2)c(O)c2ccc(Oc3ccccc3)cc12 [Compound 36, (1-{[(1-Cyano-4-hydroxy-7-phenoxy-isoquinoline-3-carbonyl)-amino]-methyl}-cyclohexyl)-acetic acid] | 5.93 µM | 10 | 56.6 µM | 
CC(C)(C)OC(=O)N[C@@H](CNC(=O)c1nc(C#N)c2cc(Oc3ccccc3)ccc2c1O)C(=O)O [Compound 85, 2-(S)-tert-Butoxycarbonylamino-3-[(1-cyano-4-hydroxy-7-phenoxy-isoquinoline-3-carbonyl)-amino]-propionic acid] | 19.1 µM | 6 | 112 µM | 
O=C(NCC(C(=O)O)C1CC1)c1ncc2cc(Oc3ccccc3)ccc2c1O (stereo not shown) [Compound 167, 2-Cyclopropyl-3-[(4-hydroxy-7-phenoxy-isoquinoline-3-carbonyl)-amino]-propionic acid] | 9.57 µM | 10 | 100 µM | 
O=C(O)CCCNC(=O)c1ncc2cc(NC(=O)NCc3ccccc3)ccc2c1O [Compound 134, 4-{[7-(3-Benzyl-ureido)-4-hydroxy-isoquinoline-3-carbonyl]-amino}-butyric acid] | 2.15 µM | 6 | 13.4 µM | 
N#Cc1nc(C(=O)NC[C@H](O)C(=O)O)c(O)c2ccc(Oc3ccccc3)cc12 [Compound 79, 3-[(1-Cyano-4-hydroxy-7-phenoxy-isoquinoline-3-carbonyl)-amino]-2-(S)-hydroxy-propionic acid] | 0.11 µM | 15 | 1.69 µM | 
N#Cc1nc(C(=O)NCCCCC(=O)O)c(O)c2cc(Oc3ccccc3)ccc12 [Compound 128, 5-[(1-Cyano-4-hydroxy-6-phenoxy-isoquinoline-3-carbonyl)-amino]-pentanoic acid] | 8.99 µM | 7 | 65.2 µM | 
CC(C)(CNC(=O)c1nc(C#N)c2cc(Oc3cccc(F)c3)ccc2c1O)C(=O)O [Compound 42, 3-(1-Cyano-7-(3-fluorophenoxy)-4-hydroxyisoquinoline-3-carboxamido)-2,2-dimethylpropanoic acid] | 0.36 µM | 11 | 3.95 µM | 
O=C(O)CCCNC(=O)c1ncc2cc(NC(=O)Nc3ccc(F)cc3)ccc2c1O [Compound 142, 4-([7-[3-(4-Fluoro-phenyl)-ureido]-4-hydroxy-isoquinoline-3-carbonyl]-amino)-butyric acid] | 4.12 µM | 14 | 56.4 µM | 
N#Cc1nc(C(=O)NCC2(C(=O)O)CCCC2)c(O)c2ccc(Oc3ccccc3)cc12 [Compound 19, 1-{[(1-Cyano-4-hydroxy-7-phenoxy-isoquinoline-3-carbonyl)-amino]-methyl}-cyclopentanecarboxylic acid] | 1.73 µM | 13 | 22.8 µM | 
O=C(O)CCCNC(=O)c1ncc2cc(Sc3ccccc3)ccc2c1O [Compound 115, 4-[(4-Hydroxy-7-phenylsulfanyl-isoquinoline-3-carbonyl)-amino]-butyric acid] | 1.41 µM | 11 | 14.8 µM | 
N#Cc1nc(C(=O)N[C@@H](CO)CC(=O)O)c(O)c2ccc(Oc3ccccc3)cc12 [Compound 37, (R)-3-(1-Cyano-4-hydroxy-7-phenoxyisoquinoline-3-carboxamido)-4-hydroxybutanoic acid] | 6.67 µM | 24 | 159 µM | 
N#Cc1nc(C(=O)NCCCC(=O)O)c(O)c2ccc(Oc3ccccc3)cc12 [Compound 80, 4-[(1-Cyano-4-hydroxy-7-phenoxy-isoquinoline-3-carbonyl)-amino]-butyric acid] | 0.14 µM | 5 | 0.71 µM | 
O=C(O)CCNC(=O)c1nc(-c2ccccc2)c2cc(Oc3ccccc3)ccc2c1O [Compound 144, 3-[(4-Hydroxy-7-phenoxy-1-phenyl-isoquinoline-3-carbonyl)-amino]-propionic acid] | 6.4 µM | 5 | 31.7 µM | 
CC(C)(CC(=O)O)NC(=O)c1ncc2cc(Oc3ccccc3)ccc2c1O [Compound 6, 3-[(4-Hydroxy-7-phenoxy-isoquinoline-3-carbonyl)-amino]-3-methyl-butyric acid] | 8.19 µM | 23 | 192 µM | 23
CCNC(=O)N[C@H](CCNC(=O)c1nc(C#N)c2cc(Oc3ccccc3)ccc2c1O)C(=O)O [Compound 52, (R)-4-(1-Cyano-4-hydroxy-7-phenoxyisoquinoline-3-carboxamido)-2-(3-ethylureido)butanoic acid] | 1.33 µM | 18.6 | 24.7 µM | 
N#Cc1nc(C(=O)NCC(C(=O)O)C2CC2)c(O)c2ccc(Oc3ccc(F)cc3)cc12 (stereo not shown) [Compound 179, 3{-[1-Cyano-7-(4-fluoro-phenoxy)-4-hydroxy-isoquinoline-3-carbonyl]-amino}-2-cyclopropyl-propionic acid] | 0.95 µM | 9 | 8.54 µM | 
CCCC(CCC)(CNC(=O)c1nc(C#N)c2cc(Oc3ccccc3)ccc2c1O)C(=O)O [Compound 18, 2-{[(1-Cyano-4-hydroxy-7-phenoxy-isoquinoline-3-carbonyl)-amino]-methyl}-2-propyl-pentanoic acid] | 4.43 µM | 7 | 29.9 µM | 
N#Cc1nc(C(=O)N[C@H](CC(=O)O)c2ccccc2)c(O)c2ccc(Oc3ccccc3)cc12 [Compound 48, (R)-3-[(1-Cyano-4-hydroxy-7-phenoxy-isoquinoline-3-carbonyl)-amino]-3-phenyl-propionic acid] | 5.42 µM | 9 | 50.1 µM | 
CC(C)(CNC(=O)c1nc(C#N)c2cc(Oc3cccnc3)ccc2c1O)C(=O)O [Compound 27, 3{-[1-Cyano-4-hydroxy-7-(pyridin-3-yloxy)-isoquinoline-3-carbonyl]-amino}-2,2-dimethyl-propionic acid] | 3.27 µM | 10 | 33.3 µM | 
O=C(O)CCCCNC(=O)c1nc(-c2cncc(F)c2)c2cc(Oc3ccccc3)ccc2c1O [Compound 147, 5-{[1-(5-Fluoro-pyridin-3-yl)-4-hydroxy-7-phenoxy-isoquinoline-3-carbonyl]-amino}-pentanoic acid] | 5.09 µM | 15 | 77 µM | 
N#Cc1nc(C(=O)NCC2(C(=O)O)CCC2)c(O)c2ccc(Sc3ccccc3)cc12 [Compound 154, 1-{[(1-Cyano-4-hydroxy-7-phenylsulfanyl-isoquinoline-3-carbonyl)-amino]-methyl}-cyclobutanecarboxylic acid] | 0.11 µM | 18 | 1.9 µM | 
O=C(O)CCNC(=O)c1nc(C(F)(F)F)c2cc(Oc3ccccc3)ccc2c1O [Compound 145, 3-[(4-Hydroxy-7-phenoxy-1-trifluoromethyl-isoquinoline-3-carbonyl)-amino]-propionic acid] | 18.6 µM | 5 | 101 µM | 
O=C(Nc1ccccc1)Nc1ccc2c(O)c(C(=O)NC[C@H](O)C(=O)O)ncc2c1 [Compound 117, (S)-2-Hydroxy-3-{[4-hydroxy-7-(3-phenyl-ureido)-isoquinoline-3-carbonyl]-amino}-propionic acid] | 4.66 µM | 11 | 51.4 µM | 
CC(CCC(=O)O)NC(=O)c1nc(C#N)c2cc(Oc3ccccc3)ccc2c1O (stereo not shown) [Compound 184, 4-[(1-Cyano-4-hydroxy-7-phenoxy-isoquinoline-3-carbonyl)-amino]-pentanoic acid] | 1.38 µM | 9 | 12.6 µM | 
N#Cc1nc(C(=O)NCC(C(=O)O)c2ccc(F)cc2)c(O)c2ccc(Oc3ccccc3)cc12 (stereo not shown) [Compound 181, 3-[(1-Cyano-4-hydroxy-7-phenoxy-isoquinoline-3-carbonyl)-amino]-2-(4-fluoro-phenyl)-propionic acid] | 1.45 µM | 7 | 9.45 µM | 
N#Cc1nc(C(=O)NCC2(C(=O)O)CCS(=O)(=O)CC2)c(O)c2ccc(Oc3ccccc3)cc12 [Compound 29, 4-{[(1-Cyano-4-hydroxy-7-phenoxy-isoquinoline-3-carbonyl)-amino]-methyl}-1,1-dioxo-hexahydro-1λ^6-thiopyran-4-carboxylic acid] | 3.76 µM | 9.9 | 37.3 µM | 
N#Cc1nc(C(=O)NCC2(C(=O)O)CC[S+]([O-])CC2)c(O)c2ccc(Oc3ccccc3)cc12 (stereo not shown) [Compound 30, 4-{[(1-Cyano-4-hydroxy-7-phenoxy-isoquinoline-3-carbonyl)-amino]-methyl}-1-oxo-hexahydro-1λ^4-thiopyran-4-carboxylic acid] | 25.1 µM | 8 | 200 µM | 
